Laboratory results: US7326288B2, “Trisazo compound, ink composition, and colored object” (Nippon Kayaku Kabushiki Kaisha, priority 2003, dated 2008)

assay: solubility in water of the isolated trisazo compound; type: physicochemical; settings: not given

SMILES	solubility
Nc1c(N=Nc2ccc3c(O)c(N=Nc4cc(C(=O)O)cc(C(=O)O)c4)c(S(=O)(=O)O)cc3c2S(=O)(=O)O)cc(S(=O)(=O)O)c2cc(S(=O)(=O)O)c(N=Nc3ccc(S(=O)(=O)O)cc3[N+](=O)[O-])c(O)c12 [compound 26]	≥ 100 mg/mL
Nc1c(N=Nc2ccc3c(O)c(N=Nc4cc(S(=O)(=O)O)c5cc([N+](=O)[O-])cc(S(=O)(=O)O)c5c4)c(S(=O)(=O)O)cc3c2S(=O)(=O)O)cc(S(=O)(=O)O)c2cc(S(=O)(=O)O)c(N=Nc3ccc([N+](=O)[O-])cc3S(=O)(=O)O)c(O)c12 [compound 20]	≥ 100 mg/mL
Nc1c(N=Nc2ccc3c(O)c(N=Nc4cc(C(=O)O)ccc4C(=O)O)c(S(=O)(=O)O)cc3c2S(=O)(=O)O)cc(S(=O)(=O)O)c2cc(S(=O)(=O)O)c(N=Nc3ccc([N+](=O)[O-])cc3S(=O)(=O)O)c(O)c12 [compound 3]	≥ 100 mg/mL
Nc1c(N=Nc2ccc3c(O)c(N=Nc4ccc([N+](=O)[O-])cc4S(=O)(=O)O)c(S(=O)(=O)O)cc3c2S(=O)(=O)O)cc(S(=O)(=O)O)c2cc(S(=O)(=O)O)c(N=Nc3ccc([N+](=O)[O-])cc3S(=O)(=O)O)c(O)c12 [compound 5]	≥ 100 mg/mL
Nc1c(N=Nc2ccc3c(O)c(N=Nc4cc(C(=O)O)cc(C(=O)O)c4)c(S(=O)(=O)O)cc3c2S(=O)(=O)O)cc(S(=O)(=O)O)c2cc(S(=O)(=O)O)c(N=Nc3ccc([N+](=O)[O-])cc3S(=O)(=O)O)c(O)c12 [compound 24]	≥ 100 mg/mL
COc1ccc(N=Nc2c(S(=O)(=O)O)cc3c(S(=O)(=O)O)c(N=Nc4cc(S(=O)(=O)O)c5cc(S(=O)(=O)O)c(N=Nc6ccc([N+](=O)[O-])cc6S(=O)(=O)O)c(O)c5c4N)ccc3c2O)c(S(=O)(=O)O)c1 [compound 1]	≥ 100 mg/mL

Other lines, results leading:

solubility	SMILES
≥ 100 mg/mL	CNS(=O)(=O)c1ccc(N=Nc2c(S(=O)(=O)O)cc3c(S(=O)(=O)O)c(N=Nc4cc(S(=O)(=O)O)c5cc(S(=O)(=O)O)c(N=Nc6ccc([N+](=O)[O-])cc6S(=O)(=O)O)c(O)c5c4N)ccc3c2O)c(C(=O)O)c1 [compound 9]
≥ 100 mg/mL	Nc1c(N=Nc2ccc3c(O)c(N=Nc4ccc(S(=O)(=O)O)cc4C(=O)O)c(S(=O)(=O)O)cc3c2S(=O)(=O)O)cc(S(=O)(=O)O)c2cc(S(=O)(=O)O)c(N=Nc3ccc([N+](=O)[O-])cc3S(=O)(=O)O)c(O)c12 [compound 2]
≥ 100 mg/mL	Nc1c(N=Nc2ccc3c(O)c(N=Nc4ccc(S(N)(=O)=O)cc4C(=O)O)c(S(=O)(=O)O)cc3c2S(=O)(=O)O)cc(S(=O)(=O)O)c2cc(S(=O)(=O)O)c(N=Nc3ccc([N+](=O)[O-])cc3S(=O)(=O)O)c(O)c12 [compound 4]

assay: Solubility Test (ammonia alkalinity, spot on filter paper); type: physicochemical; settings: aqueous buffer, thermodynamic from solid
Description: Using ion exchanged water for a water, pH was adjusted at 9 to 9.5 with aqueous ammonia. They were treated with ultrasonic vessel at ordinary temperature. Toyo Filter Paper No. 131 was spotted with them, surface of which after dried was observed and solubility of which was determined. When a spot was uniform and insoluble material were not observed, it was judged to be soluble. When a spot was ununiform and insoluble material were observed, it was judged to be not soluble.

solubility	SMILES
≥ 120 mg/mL	Nc1c(N=Nc2ccc3c(O)c(N=Nc4cc(S(=O)(=O)O)ccc4S(=O)(=O)O)c(S(=O)(=O)O)cc3c2S(=O)(=O)O)cc(S(=O)(=O)O)c2cc(S(=O)(=O)O)c(N=Nc3ccc([N+](=O)[O-])cc3S(=O)(=O)O)c(O)c12 [Formula (2-10)]
